Data reported in paper PMC12045974, “T cell toxicity induced by tigecycline binding to the mitochondrial ribosome” (Nature Communications, 2025).
Where “and” joins values, the source holds several entries; their conditions need not be identical. Identical values can stand only once.

Assays:
[1] = tested on: CD4+ and CD8+ T cells; test: Short-term activation assay, CD25 expression on stimulated T cells; type: cell-based, human; conditions: for mean MFI of CD25: 18 h after anti-CD3/CD28 activation + IL-2
Protocol: After thawing frozen PBMCs, cells were washed with RPMI complemented with 10% FBS, 2.05 mM L-glutamine (Sigma), and 55 μM 2-ME (Gibco) and rested at 37 °C (5% CO2) for 30 min. 250,000 cells per well were seeded in 96-well U-bottom plates with/without Human T-Activator CD3/CD28 beads (Invitrogen) at a 1:1 ratio and 10 ng/ml IL-2 (Proteintech) in RPMI-1640 medium mentioned above. At the same time, antibiotics were added. For the short-term activation assay, cells were harvested 18 h post-stimulation and stained with Aqua fixable live/dead dye (Invitrogen) and surface markers. For the proliferation assays, cells were stained with CFSE (eBioscience) or Cell Trace Violet (ThermoFisher Scientific) dyes before seeding and stimulation, according to the manufacturer’s recommendations. For TCR priming experiments, tigecycline was added at 0, 24 or 72 h post-activation. For mitochondrial mass measuring, cells were stained with Mitotracker Green Fm Dye (Thermo Fisher Scientific) after incubation with Tigecycline. After incubation for 6 days with a half medium (complete, with antibiotics and IL-2) change after 3 days, cells were harvested via centrifugation, and stained with live/dead dye and surface markers for analysis by flow cytometry. The Foxp3/Transcription Factor Staining Buffer Set (Invitrogen) was used to fix cells according to the manufacturer’s instructions. The FACS gating strategy is shown in Supplementary Fig. 2D. Flow cytometry was carried out on a BD Celesta (BD Biosciences) and analyzed in FlowJo (TreeStar) software.

[2] = tested on: OXPHOS complexes; test: Western blotting for OXPHOS complexes in Jurkat T cells and PBMCs; type: cell-based; conditions: Jurkat T cells and human PBMCs, 5 μM, 6 days
Protocol: Human PBMCs and Jurkat T cells were seeded in 6-well plates at a density of 1 million cells/ml and incubated with or without antibiotics in RPMI-1640 medium (with 10% FBS, 2.05 mM L-glutamine (Sigma), and 55 μM 2-ME (Gibco)) for 6 days. After centrifugation, cells were lysed in RIPA buffer containing protease and phosphatase inhibitors (cOmplete and PhosSTOP, respectively, Roche). Protein concentrations were determined by BCA (Pierce, Thermo Fisher). Protein samples were resuspended with 1× NuPAGE LDS sample buffer (Thermo Fisher) supplemented with 100 mM dithiothreitol, heated for 10 min at 75 °C, and separated on NuPAGE 4–12% Bis-Tris mini gels (Thermo Fisher) using NuPAGE 1× MES (Thermo Fisher) running buffer, and transferred to PVDF membranes (0.45 μm, Immobilon-P, Sigma) using the iBlot2 system (Invitrogen). Non-specific binding was blocked with TBST containing 5% non-fat milk, followed by overnight incubation at 4 °C with antibodies against Total OXPHOS Human WB Antibody Cocktail (Abcam, Cambridge, UK), followed by HRP-conjugated secondary antibodies for 1 h at room temperature. β-actin, HSP60, and GAPDH (Cell Signaling Technology) were used as loading control. Proteins were detected using Clarity Western ECL Substrate (Bio-Rad, 170-5061). For an example of presentation of full scan blots, see the Source Data file.

[3] = tested on: PBMCs; test: Extracellular metabolic flux assay (Seahorse Mito Stress Test, OCR and ECAR); type: cell-based, human; conditions: for glycolysis rates: vs untreated stimulated controls; for ATP coupled OCR / Basal OCR / Maximal OCR / Spare capacity OCR: PBMC, per donor
Protocol: The Seahorse XFe96 Analyzer (Seahorse Bioscience) was used to measure oxygen consumption rate (OCR) and extracellular acidification rate (ECAR) in human PBMCs. 1.5 × 10^6 cells/well were seeded in 24-well plates and stimulated using plate-bound anti-CD3 antibody (2 μg/ml, clone OKT3, BD Biosciences), soluble anti-CD28 antibody (0.5 μg/ml, clone CD28.2, Biolegend) and IL-2 (10 ng/ml, Proteintech) in RPMI-1640 (with 10% FBS, 2.05 mM L-glutamine (Sigma), and 55 μM 2-ME (Gibco)). Cells were treated with or without 5 and 10 µM Tigecycline for 6 days with a half medium change after 3 days. After treatment, cells were washed with Seahorse XF RPMI assay medium, and then 200,000 cells per well were seeded (in triplicate) in 40 μl assay medium in XF 96-well cell culture microplate coated with poly-D-lysine (Sigma). The plate was centrifuged at 300 g for 5 s with no brake, rotated 180 °, and centrifuged again for 5 s at 300 x g. After centrifugation, 140 μl of assay medium was added per well and the plate was left to stabilize in a 37 °C, non-CO2 incubator for 40 min. During seahorse, wells were sequentially injected with compounds to achieve final concentrations of […] oligomycin (Sigma); 2 μM FCCP (Sigma); 0.5 μM rotenone (Sigma) together with 0.5 μM antimycin A (Sigma). OCR was measured for each well three times, every three min, before and after each injection. OCR was normalized to protein concentration using a BCA Protein Assay kit (ThermoFisher Scientific) conducted according to the manufacturer’s instructions.

CN(C)c1cc(NC(=O)CNC(C)(C)C)c(O)c2c1C[C@H]1C[C@H]3[C@H](N(C)C)C(O)=C(C(N)=O)C(=O)[C@@]3(O)C(O)=C1C2=O [Tigecycline, tigecycline] was tested, and the “mean MFI of CD25” value ([1]; CD4, 2.5 μM) was 3754 and 3553 and 3674, the “mean MFI of CD25” value ([1]; CD4, 5 μM) was 3471 and 3450 and 3256 and the “mean MFI of CD25” value ([1]; CD4, 10 μM) was 3082 and 3057 and 2814. For the same compound, the “mean MFI of CD25” value ([1]; CD8, 2.5 μM) was 4522 and 5003 and 6223, the “mean MFI of CD25” value ([1]; CD8, 5 μM) was 4093 and 4409 and 4799 and the “mean MFI of CD25” value ([1]; CD8, 10 μM) was 3582 and 3463 and 3588. The “expression of T cell activation marker CD25 (IL2RA)” value ([1]; stimulated CD4+ and CD8+ T cells, 18 h post-priming) was “reduced expression”, the “levels of subunits of complex I (NDUFB8), complex III (UQCRCII) and complex IV (COX2)” value [2] was “drop” and the “levels of subunits of complex II (SDHB) and complex V (ATP5A)” value [2] was “less affected”. The glycolysis rates ([3]; 5 uM treatment) was “trended towards an increase”, the glycolysis rates ([3]; 10 uM treatment) was “trended towards being decreased” and the “ATP coupled OCR” value ([3]; 5um) was 0.02281 pmol/min/Norm. ug protein and -0.09216 pmol/min/Norm. ug protein and -0.102 pmol/min/Norm. ug protein and -0.498 pmol/min/Norm. ug protein. For the same compound, the “Basal OCR” value ([3]; 5um) was -0.181 pmol/min/Norm. ug protein and -0.2066 pmol/min/Norm. ug protein and 0.2924 pmol/min/Norm. ug protein and 0.06036 pmol/min/Norm. ug protein, the “Maximal OCR” value ([3]; 5um) was 0.6209 pmol/min/Norm. ug protein and 0.08625 pmol/min/Norm. ug protein and 0.8496 pmol/min/Norm. ug protein and -0.7482 pmol/min/Norm. ug protein and the “Spare capacity OCR” value ([3]; 5um) was 0.2929 pmol/min/Norm. ug protein and 0.5571 pmol/min/Norm. ug protein and -0.8086 pmol/min/Norm. ug protein. For the same compound, the “ATP coupled OCR” value ([3]; 10um) was -0.2018 pmol/min/Norm. ug protein and -0.1474 pmol/min/Norm. ug protein and -0.3438 pmol/min/Norm. ug protein and 0.00593 pmol/min/Norm. ug protein, the “Basal OCR” value ([3]; 10um) was -0.1538 pmol/min/Norm. ug protein and -0.01961 pmol/min/Norm. ug protein and -0.5181 pmol/min/Norm. ug protein and 0.03583 pmol/min/Norm. ug protein and the “Maximal OCR” value ([3]; 10um) was 0.1774 pmol/min/Norm. ug protein and 0.3784 pmol/min/Norm. ug protein and -0.2836 pmol/min/Norm. ug protein and 0.05421 pmol/min/Norm. ug protein. For the same compound, the “Spare capacity OCR” value ([3]; 10um) was 0.398 pmol/min/Norm. ug protein and 0.2345 pmol/min/Norm. ug protein and 0.01838 pmol/min/Norm. ug protein, the “glycolysis (ECAR)” value ([3]; stimulated PBMCs, 5 and 10 μM, 6 days) was “did not observe a major compensatory increase in glycolysis” and the “basal, ATP-coupled, maximal and spare oxygen consumption rates” value ([3]; stimulated PBMCs, 5 and 10 μM, 6 days after stimulation) was “reduced”.
